In paper PMC7983974 (Basic & Clinical Pharmacology & Toxicology, 2020):

Tests used:
[1] = target: T1, UGT-mediated glucuronidation of molidustat in human liver microsomes (HLMs) (Homo sapiens, UniProt P22309); test: Inhibition of M1 formation from molidustat in pooled human liver microsomes; assay type: in vitro ADME; conditions: pooled HLMs 0.3 mg/mL, molidustat 5 µmol/L, 30 min, N=1; Table 1
T1 sequence (P22309 26-533): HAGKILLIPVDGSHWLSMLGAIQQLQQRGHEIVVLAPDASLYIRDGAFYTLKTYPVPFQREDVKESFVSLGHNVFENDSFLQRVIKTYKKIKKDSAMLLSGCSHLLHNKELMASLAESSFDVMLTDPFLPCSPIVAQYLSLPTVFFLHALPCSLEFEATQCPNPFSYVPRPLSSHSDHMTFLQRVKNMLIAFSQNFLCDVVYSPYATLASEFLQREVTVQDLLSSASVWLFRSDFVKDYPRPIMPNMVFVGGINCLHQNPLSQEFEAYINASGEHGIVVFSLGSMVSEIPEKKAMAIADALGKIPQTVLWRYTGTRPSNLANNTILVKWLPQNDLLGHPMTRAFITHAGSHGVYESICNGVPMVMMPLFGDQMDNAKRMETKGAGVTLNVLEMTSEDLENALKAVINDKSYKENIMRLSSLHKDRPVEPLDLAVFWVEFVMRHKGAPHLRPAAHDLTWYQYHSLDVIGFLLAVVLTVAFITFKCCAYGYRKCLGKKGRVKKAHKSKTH

[2] = test system: pooled human liver microsomes; test: Isoform-specific UGT inhibitors on M1 formation in human liver microsomes; assay type: in vitro ADME; conditions: inhibitor 10 µmol L^−1; for inhibitory activity on M1 formation: liver, intestine and kidney microsomes
[3] = target: T2, UGT-mediated glucuronidation of molidustat (M1 formation) (Homo sapiens, UniProt P22309); test: Inhibition of M1 formation from molidustat in pooled human liver microsomes; assay type: in vitro ADME; conditions: human, pooled human liver microsomes, probe molidustat 5 µmol/L (formation of M1), IC50, pooled HLMs 0.3 mg/mL, N=1, Table 1
T2 sequence (P22309 26-533): T1 sequence (P22309 26-533)

[4] = test system: molidustat glucuronidation (clearance); test: In vitro-in vivo scaling: predicted increase in molidustat AUC; set-up: species or system human; conditions: fm 0.9; unbound hepatic inlet concentration, ka 0.1 min^−1
[5] = cited from earlier work
[6] = test system: pooled human kidney microsomes; test: Isoform-specific UGT inhibitors on M1 formation in human kidney microsomes; assay type: in vitro ADME; conditions: inhibitor 10 µmol L^−1; molidustat 4.9 µmol L^−1; n = 2
[7] = test system: pooled human intestine microsomes; test: Isoform-specific UGT inhibitors on M1 formation in human intestine microsomes; assay type: in vitro ADME; conditions: inhibitor 10 µmol L^−1; molidustat 4.9 µmol L^−1; n = 2

| Molecule | IC50 [1] [µM] | inhibitory activity on M1 formation [2] | IC50 at 30 min [3] [µM] | further results |
| --- | --- | --- | --- | --- |
| C#C[C@]1(O)CC[C@H]2[C@@H]3CCc4cc(O)ccc4[C@H]3CC[C@@]21C [17a‐Ethynylestradiol] | 10.8 | – | – | – |
| Cc1ccc(C)c(OCCCC(C)(C)C(=O)O[C@@H]2O[C@H](C(=O)O)[C@@H](O)[C@H](O)[C@H]2O)c1 [Gemfibrozil glucuronide] | 96.1 | – | – | – |
| Cc1cccc(Nc2ccccc2C(=O)O)c1C [Mefenamic acid] | – | none or very little activity | 16 | – |
| Cc1cn(-c2cc(NC(=O)c3ccc(C)c(Nc4nccc(-c5cccnc5)n4)c3)cc(C(F)(F)F)c2)cn1 [Nilotinib] | – | – | 0.17 | AUCRinlet, ka 0.1 min^−1 (estimated increase in molidustat AUC) [4]: more than fivefold |
| Cc1c(F)cccc1NC(=O)Nc1ccc(Cl)c(S(=O)(=O)[C@H]2CCCNC2)c1O [danirixin] | – | – | – | drug excreted as glucuronides [5]: approximately 90%; recovered as directly conjugated parent compound [5]: 80% |
| Hecogenin | – | none or very little activity | – | M1 formation in % of control in microsomal tissue, Kidney [6]: 102.4%; M1 formation in % of control in microsomal tissue, Liver ([2]; molidustat 4.9 µmol L^−1, n = 2): 104.7%; M1 formation in % of control in microsomal tissue, Intestine [7]: 106.0% |
